Legend:
Format in all cases: in vivo
[1] = test system: plasma tyrosine, dopamine levels and dopamine turnover; assay: Plasma tyrosine, dopamine levels and dopamine turnover in orally dosed mice; settings: 0.1 mg/Kg oral; for plasma tyrosine levels: vs vehicle control
Experimental: Illustration of increase in levels and turnover of dopamine as a mechanism for treatment/prevention of depression and treatment of the withdrawal symptoms associated with withdrawal from an addictive drug such as cocaine. 10 mice were dosed orally with 0.1 mg/Kg of 2-(2-Nitro-4-Trifluoromethylbenzoyl)-1,3-Cyclohexanedione. As a control, 10 mice were orally dosed with the dosing vehicle. After 24 hours, plasma tyrosine levels were identified. Dopamine levels and dopamine turnover were also analysed. 10 mice were dosed orally with 0.1 mg/Kg of 2-(2-Nitro-4-Trifluoromethylbenzoyl)-1,3-Cyclohexanedione. As a control, 9 mice were orally dosed with the dosing vehicle. After 6 hours, plasma tyrosine levels were identified. Dopamine levels and dopamine turnover were also analysed.

[2] = test system: plasma tyrosine, dopamine turnover and noradrenaline levels; assay: Plasma tyrosine, dopamine turnover and noradrenaline levels in orally dosed rats; settings: 2 mg/Kg oral, after 24 hours
Experimental: 10 rats were dosed orally with 2 mg/Kg of 2-(2-Nitro-4-Trifluoromethylbenzoyl)-1,3-Cyclohexanedione. As a control, 10 rats were orally dosed with the dosing vehicle. After 24 hours, plasma tyrosine levels were identified. Dopamine levels and dopamine turnover and noradrenaline levels were also analysed.

rats = assay: Activity cage with automatic infrared activity monitoring (rearing, activity, mobility) in rats; settings: 2 mg/Kg oral, after 4 hours, one hour in activity cage
Experimental: Analysis of stimulatory effect of HPPD inhibitors as a mechanism for the treatment of withdrawal symptoms associated with an addictive drug such as nicotine. 12 rats were dosed orally with 2 mg/Kg of 2-(2-Nitro-4-Trifluoromethylbenzoyl)-1,3-Cyclohexanedione. As a control, 12 rats were orally dosed with the dosing vehicle. After 4 hours, animals were each placed in an activity cage for one hour, containing an automatic activity monitoring system with infrared beams to determine activity and mobility.

O=C1CCCC(O)=C1C(=O)c1ccc(C(F)(F)F)cc1[N+](=O)[O-] [2-(2-Nitro-4-Trifluoromethylbenzoyl)-1,3-Cyclohexanedione]
dopamine increase compared with the mean of the controls ([1]; after 6 hours): up to 15% | dopamine turnover increase compared with the mean of the controls ([1]; after 6 hours): up to 15% | plasma tyrosine levels ([1]; after 6 hours): elevated | dopamine increase compared with the mean of the controls ([1]; after 24 hours): up to 16% | dopamine turnover increase compared with the mean of the controls ([1]; after 24 hours): up to 27% | plasma tyrosine levels ([1]; after 24 hours): elevated | dopamine turnover increase in the treated compared with the control group [2]: 25% | noradrenaline increase compared with the mean of the controls ([2]; cortex): up to 76% | noradrenaline increase compared with the mean of the controls ([2]; hypothalamus): ≤ 21% | plasma tyrosine levels ([2]; vs vehicle control): elevated | active time, decrease compared with the control group (rats): ~27% | activity counts, decrease compared with the control group (rats): approximately 43% | centre rearing counts, increase compared with the control group (rats): 63% | effect on rearing behaviour (rats): mild stimulatory effect | mean rearing counts, increase compared with the control group (rats): 91% | mobile time, decrease compared with the control group (rats): ~49% | rearing time, increase compared with the control group (rats): 79%

Reference: patent US20100305095A1, “Use of HPPD Inhibitors in the Treatment of Depression and/or Withdrawal Symptoms Associated with Addictive Drugs” (priority 2006, published 2010)
